Data published in patent publication US20070213291A1, “Therapeutically useful synthetic oligonucleotides” (priority 1999, published 2007).

Columns and labels:
Type in all cases: cell-based
[1] = tested on: Jurkat human leukemia T cells; assay: Inhibition of Jurkat human leukemia T cell proliferation (MTT reduction); details: for % INHIBITION of Jurkat human leukemia T cell proliferation: 100 μg/ml sequence, 48 h, 2.5×10^5 cells/ml
Experimental: Cells were seeded in 6 (1 ml/well), 24 (0.5 ml/well) or 96 (0.1 ml/well) well flat-bottom microplates and were maintained at 37° C. in a 5% CO2 atmosphere. Unless stated otherwise, 2.5×10^5 cells/ml were incubated with 0 μg/ml (control) and 100 μg/ml (treated) of 2 to 45 base sequences containing A, C, G and T for 48 h.
MTT was measured at a wavelength of 570 nm using a multiplate spectrophotometer reader (ELX800, Bio-TEK Instruments Inc., Winooski, Vt.).
Jurkat human leukemia T cells are an atypical multi-drug resistant human suspension tumor cell model.

[2] = tested on: THP-1 human acute monocytic leukemia cells; assay: Cytokine production by THP-1 cells (ELISA); details: THP-1, 1×10^6 cells, 100 μg/ml, 48 h; for ↑ IL-12 (fold increase treated vs control cells): p70 complex and free p40
Experimental: Unless stated otherwise, 1×10^6 cells were incubated with 100 μg/ml of each of the sequences tested for 48 h at 37° C. in 5% CO2. Production of cytokines IL-6, IL-10, IL-12, IL-1beta and TNF-alpha was determined in pg/ml in 100 μl of culture supernatant using the appropriate commercial ELISA (BioSource, Camarillo Calif.). The IL-12 ELISA measures both IL-12 p70 complex and free p40 subunit. Results are expressed as the “fold” (×) increase in cytokine production by treated cells compared to control cells.
THP-1 human acute monocytic leukemia cells were incubated with 2, 3, 6, 9, 12, 14, 15 and 18 base GT sequences and production of the cyotkine IL-6 was determined (Table 35).
THP-1 human acute monocytic leukemia cells were incubated with 6 base GT, AG, CG, GG, AGT and CGT sequences and production of the cytokines IL-12 and IL-6 was determined (Table 36).
THP-1 human acute monocytic leukemia cells were incubated with 6 base GT sequences, having either an oxygen (phosphodiester) or a sulfur (phosphorothioate) as the nonbridging atom on the phosphate groups and production of the cytokine IL-12 was determined (Table 39).
THP-1 human acute monocytic leukemia cells were incubated with 6 base GT SEQ ID NO:25, having either an oxygen (phosphodiester) or a sulfur (phosphorothioate) as the nonbridging atom on the phosphate groups and production of the cytokine IL-12 was determined (Table 40).

[3] = tested on: Jurkat human leukemia T cells; assay: Cell cycle stage in Jurkat cells (propidium iodide flow cytometry); details: Jurkat, 24 h, 100 μg/ml
Experimental: Cell cycle stage was determined using a […]™ PLUS DNA commercial kit (Becton Dickinson). Briefly, nuclei from cells were obtained by dissolving the cell membrane in a nonionic detergent, eliminating the cell cytoskeleton and nuclear proteins with trypsin, digesting the cellular RNA with RNase and stabilizing the nuclear chromatin with spermine. Propidium iodide was added to the cell nuclei and their fluorescence was analyzed in a flow cytometer equipped with electronic doublet discrimination capability (FACSCalibur, Becton Dickinson, San Jose, Calif.). Accumulation of cells in G0/G1, early S (SE), mid S (SM), late S (SL) or G2/M phases of the cell cycle was analyzed using MODFIT LT software (Verity Software House Inc., Topsham, Mass.).
Exponentially growing Jurkat human leukemia T cells (Table 28) and MCF-7 human breast cancer cells (5×10^5 cells/ml) (Table 29) were incubated for 24 h with 2, 6, 15, 18, 27 and 45 base sequences containing A, C, G and T. The cells were collected and centrifuged and cell cycle stage was determined.
Jurkat human cell leukemia T cells (1×10^6 cells/ml) were incubated for 24 h with 6 base GT SEQ ID NO:25, conplementary 6 base AC SEQ ID NO:79 and 6 base GT SEQ ID NO:25+6 base AC SEQ ID NO:79. GT SEQ ID NO:25 and AC SEQ ID NO:79 were hybridized by mixing the oligonucleotides (1:1) and heating for 10 minutes at 65° C. As controls, GT SEQ ID NO:25 and AC SEQ ID NO:79 were heated for 10 minutes at 65° C. (Table 30).

Compound	% INHIBITION of Jurkat human leukemia T cell proliferation [1]	further results
N.N.[Cl][Pt][Cl] [Cisplatin, reference compound]		% INHIBITION of Jurkat proliferation, Cisplatin 0.1 μg/ml ([1]; cisplatin 0.1 μg/ml, alone or with sequence at 1.0 μg/ml): 7%; % INHIBITION of Jurkat proliferation, Cisplatin 1.0 μg/ml ([1]; cisplatin 1.0 μg/ml, alone or with sequence at 1.0 μg/ml): 29%; % INHIBITION of Jurkat proliferation, Cisplatin 10.0 μg/ml ([1]; cisplatin 10.0 μg/ml, alone or with sequence at 1.0 μg/ml): 73%
ACGAGACCACCATCGTCGAGGGCGCCGGTGACACCGACGCCATCG (unmodified DNA) [BCG A-6, reference compound]	21%	↑ IL-6 (fold increase treated vs control cells) [2]: 3.9x; ↑ IL-12 (fold increase treated vs control cells) [2]: 2.1x
ACGCCGACGTCGTCTGTGGTGGGGTGTCTACCGCCAACGCGACGG (unmodified DNA) [BCG M-3, reference compound]	22%	↑ IL-6 (fold increase treated vs control cells) [2]: 2.5x; ↑ IL-12 (fold increase treated vs control cells) [2]: 1.6x
CCGTGG [SEQ ID NO:34]	37%	↑ IL-6 (fold increase treated vs control cells) [2]: 10.8x; ↑ IL-12 (fold increase treated vs control cells) [2]: 0.0x
CGACTACAACGGCTGGGATATCAACACCCCGGCGTTCGAGTGGTA (unmodified DNA) [BCG ALPHA-1, reference compound]	10%	↑ IL-6 (fold increase treated vs control cells) [2]: 2.1x; ↑ IL-12 (fold increase treated vs control cells) [2]: 1.1x
CGGTGC [SEQ ID NO:38]	16%	↑ IL-6 (fold increase treated vs control cells) [2]: 6.9x; ↑ IL-12 (fold increase treated vs control cells) [2]: 0.2x
GAGTGA [SEQ ID NO:32]	24%	↑ IL-6 (fold increase treated vs control cells) [2]: 5.8x; ↑ IL-12 (fold increase treated vs control cells) [2]: 1.8x
GGAGGG (unmodified DNA) [SEQ ID NO:47]	14%	
GGGTGGG (unmodified DNA) [SEQ ID NO:63]	28%	
GGGTGGT (unmodified DNA) [SEQ ID NO:65]	48%	
GGTT (unmodified DNA) [SEQ ID NO:58]	37%	
GTGGGG [SEQ ID NO:48]	26%	
GTGT (unmodified DNA) [SEQ ID NO:54]	42%	
GTGTGTGTGTGTGTGTGTGTG (unmodified DNA) [SEQ ID NO:20]	46%	
GTGTGTGTGTGTGTGTGTGTGTGT [SEQ ID NO:22]	56%	
GTGTGTGTGTGTGTGTGTGTGTGTGTG (DNA, backbone not given here; further chemistry not fully specified) [SEQ ID NO:1 phosphorothioate]		% of cells in phase: G0/G1 [3]: 33.7%; % of cells in phase: G2/M [3]: 24.5%; % of cells in phase: SE [3]: 17.6%; % of cells in phase: SL [3]: 11.0%; % of cells in phase: SM [3]: 13.2%; Arrest (cell cycle) [3]: None
TCTCTCTCTCTCTCTCTCTCTCTCTCT (unmodified DNA) [SEQ ID NO:6]	0%	
TGGGTGG (unmodified DNA) [SEQ ID NO:64]	55%	
TGTG (unmodified DNA) [SEQ ID NO:59]	52%	
TGTGTGTGTGTGTGTGTGTGT (unmodified DNA) [SEQ ID NO:19]	60%	
TGTGTGTGTGTGTGTGTGTGTGTG [SEQ ID NO:21]	54%	
TGTGTGTGTGTGTGTGTGTGTGTGTG (DNA TGTGTGTGTGTGTGTGTGTGTGTGTGT; unmodified DNA) [SEQ ID NO:5]	45%	
TGTT (unmodified DNA) [SEQ ID NO:57]	32%	
TTGG (unmodified DNA) [SEQ ID NO:55]	44%	
TTGT (unmodified DNA) [SEQ ID NO:53]	25%	
